# From PMC1664607 (PLoS Medicine, 2006)
# Where two headings read alike, the source gives them in different places.
# Experiments:
# S. typhimurium TA1535 = assay: Bacterial reverse mutation (BRM) test; format: cell-based; settings: S9 mix −; positive control NaN3 0.5 μg/plate
# Experimental: The BRM test was performed in accordance with OECD Guideline 471 using Salmonella tyiphimurium TA98, TA100, TA1535, and TA1537, and Escherichia coli WP2 uvrA [11]. Each bacterial strain was pre-cultured at 37 °C for 18 h using a nutrient broth (Nissui Pharmaceutical; http://www.nissui-pharm.co.jp/index_e.html). After adjustment to 2.4 at OD660 nm, each bacterial suspension was added to a test tube containing the designated compound in the absence or presence of rat liver microsome (S9) mix. After a 20-min incubation at 37 °C, top agar was added to each test tube and the contents were poured into minimum essential medium (Oriental Yeast; http://www.oyc.co.jp/e/index.htm). The number of revertants was counted 48 h after incubation at 37 °C.
# [1] = tested on: M. tuberculosis ATCC 35837 (H37Rv-E-R); assay: microbe, parasite or virus in culture; format: cell-based; settings: Mycobacterium tuberculosis, 336 h
# [2] = tested on: M. tuberculosis ATCC 35822 (H37Rv-H-R); assay: microbe, parasite or virus in culture; format: cell-based; settings: Mycobacterium tuberculosis, 336 h
# [3] = tested on: M. tuberculosis ATCC 35820 (H37Rv-S-R); assay: microbe, parasite or virus in culture; format: cell-based; settings: Mycobacterium tuberculosis, 336 h
# [4] = tested on: M. tuberculosis ATCC 25618 (H37Rv); assay: Susceptibility testing (agar dilution MIC); format: cell-based; settings: Mycobacterium tuberculosis, 336 h
# [5] = tested on: intracellular M. tuberculosis H37Rv in THP-1 cells; assay: Activity against intracellular mycobacteria, 4-h pulsed exposure; format: cell-based, M. tuberculosis; human THP-1 cells; settings: further 68-h culture
# M. tuberculosis Kurono = assay: Therapeutic efficacy in an experimental mouse model of chronic TB; format: in vivo, ICR mice; settings: for Dose that could produce a CFU reduction of at least 95%: lung; for Dose that could produce a CFU reduction of at least 95% / Dose groups that showed a significant decrease in pulmonary viable bacterial count when compared with the vehicle control group: once daily for 28 d
# [6] = tested on: M. tuberculosis ATCC 35838 (H37Rv-R-R); assay: microbe, parasite or virus in culture; format: cell-based; settings: Mycobacterium tuberculosis, 336 h
# [7] = tested on: M. tuberculosis ATCC 35812 (Kurono); assay: Susceptibility testing (agar dilution MIC); format: cell-based; settings: Mycobacterium tuberculosis, ATCC35812, 336 h
# [8] = Plasma levels in an experimental mouse model of TB; settings: in vivo, po
# CYP2C8/9 = assay: Tolubutamide methylhydroxylation in human liver microsomes; format: in vitro ADME; settings: 100 μM; 400 μM tolbutamide
# [9] = mouse, in vivo, po
# [10] = tested on: clinically isolated M. tuberculosis; assay: microbe, parasite or virus in culture; format: cell-based; settings: Mycobacterium tuberculosis; read-out: MIC90
# M. tuberculosis = assay: Activity of the main metabolite (test not described); settings: metabolite produced in the presence of M. tuberculosis
# [11] = 7H11 agar, 37 °C, 14 d, read-out: MIC
smiles,measurement,setting,value
"[N-]=[N+]=[N-].[Na+] [NaN3, sodium azide]",Revertants/Plate,S. typhimurium TA1535,6 174 Revertants/Plate
O=[N+]([O-])c1cn2c(n1)OC[C@@H](OCc1ccc(OC(F)(F)F)cc1)C2 [PA-824],MIC,[1],0.2 µg/mL
same,MIC,[2],0.05 µg/mL
same,MIC,[3],0.2 µg/mL
same,MIC,[4],0.2 µg/mL
same,Activity against intracellular M. tuberculosis H37Rv,[5],poor activity
same,Log of Viable Counts/Lung,"M. tuberculosis Kurono; 1.25 mg/kg, 672 h","6.905 ± 0.382^c:NS, d:NS"
same,Log of Viable Counts/Lung,"M. tuberculosis Kurono; 2.5 mg/kg, 672 h","6.567 ± 0.108^c:NS, d:NS"
same,Log of Viable Counts/Lung,"M. tuberculosis Kurono; 5 mg/kg, 672 h","6.329 ± 0.303^c:NS, d:NS"
same,Log of Viable Counts/Lung,"M. tuberculosis Kurono; 10 mg/kg, 672 h","6.244 ± 0.728^c:NS, d:NS"
same,Log of Viable Counts/Lung,"M. tuberculosis Kurono; 20 mg/kg, 672 h","4.688 ± 0.944^c:**, d:**"
same,Log of Viable Counts/Lung,"M. tuberculosis Kurono; 40 mg/kg, 672 h","5.145 ± 0.444^c:**, d:**"
same,MIC,[6],0.1 µg/mL
same,MIC,[7],0.2 µg/mL
"NC(=O)c1cnccn1 [PZA, pyrazinamide]",AUC(0-t),[8],197 µg·h/mL
same,concentration at 0.083 h,[8],49600 ± 11200 ng/mL
same,concentration at 0.25 h,[8],59.1 ± 14.1 µg/mL
same,concentration at 0.5 h,[8],63.2 ± 28.9 µg/mL
same,concentration at 1 h,[8],60.2 ± 18.7 µg/mL
same,concentration at 2 h,[8],35500 ± 6450 ng/mL
same,concentration at 4 h,[8],18400 ± 3090 ng/mL
same,AUC(0-t),[8]; 100 mg/kg,198 µg·h/mL
same,Cmax,[8]; 100 mg/kg,63200 ng/mL
same,Tmax,[8]; 100 mg/kg,0.5 h
same,half-life,[8]; 100 mg/kg,66 min
same,Log of Viable Counts/Lung,"M. tuberculosis Kurono; 40 mg/kg, 672 h","6.942 ± 0.205^a:NS, b:NS"
same,Log of Viable Counts/Lung,"M. tuberculosis Kurono; 80 mg/kg, 672 h","6.168 ± 0.774^a:*, b:NS"
same,Log of Viable Counts/Lung,"M. tuberculosis Kurono; 160 mg/kg, 672 h","5.823 ± 0.628^a:**, b:*"
same,Log of Viable Counts/Lung,"M. tuberculosis Kurono; 320 mg/kg, 672 h","5.009 ± 0.539^a:**, b:**"
same,Dose that could produce a CFU reduction of at least 95%,M. tuberculosis Kurono,160 mg/kg
same,Dose groups that showed a significant decrease in pulmonary viable bacterial count when compared with the vehicle control group,M. tuberculosis Kurono,"80, 160, and 320 mg/kg"
"O=c1c(O)c(-c2ccc(O)c(O)c2)oc2cc(O)cc(O)c12 [Quercetin, quercetin]",Percent of Control,CYP2C8/9,30.6% of Control
"CO[C@H]1/C=C/O[C@@]2(C)Oc3c(C)c(O)c4c(O)c(c(/C=N/N5CCN(C)CC5)c(O)c4c3C2=O)NC(=O)/C(C)=C\C=C\[C@H](C)[C@H](O)[C@@H](C)[C@@H](O)[C@@H](C)[C@H](OC(C)=O)[C@@H]1C [RFP, rifampicin]",MIC,[1],0.2 µg/mL
same,MIC,[2],0.39 µg/mL
same,AUC(0-t),[8]; 5 mg/kg,48.2 µg·h/mL
same,Cmax,[8]; 5 mg/kg,5100 ng/mL
same,Tmax,[8]; 5 mg/kg,6 h
same,MIC,[3],0.78 µg/mL
same,"Concentration, 0.5 h",[9],3.33 ± 0.87 µg/mL
same,"Concentration, 1 h",[9],4.49 ± 1.04 µg/mL
same,"Concentration, 2 h",[9],4.52 ± 1.90 µg/mL
same,"Concentration, 4 h",[9],3.82 ± 0.70 µg/mL
same,"Concentration, 6 h",[9],5.10 ± 1.63 µg/mL
same,"Concentration, 16 h",[9],0.660 ± 0.260 µg/mL
same,MIC,[4]; [11],0.78 µg/mL
same,Log of Viable Counts/Lung,"M. tuberculosis Kurono; 1.25 mg/kg once daily for 28 d (4 weeks), mean ± S.D., n = 5","7.409 ± 0.201^c:NS, d:NS"
same,Log of Viable Counts/Lung,"M. tuberculosis Kurono; 10 mg/kg once daily for 28 d (4 weeks), mean ± S.D., n = 5","3.972 ± 0.596^c:**, d:**"
same,Log of Viable Counts/Lung,"M. tuberculosis Kurono; 20 mg/kg once daily for 28 d (4 weeks), mean ± S.D., n = 5","3.279 ± 0.330^c:**, d:**"
same,Dose that could produce a CFU reduction of at least 95%,M. tuberculosis Kurono,3.5 mg/kg
same,MIC,[6],> 100 µg/mL
same,MIC90,[10],0.288 µg/mL
same,MIC,[7]; [11],0.39 µg/mL
"CN[C@@H]1[C@H](O[C@H]2[C@H](O[C@H]3[C@H](O)[C@@H](O)[C@H](N=C(N)N)[C@@H](O)[C@@H]3N=C(N)N)O[C@@H](C)[C@]2(O)C=O)O[C@@H](CO)[C@H](O)[C@H]1O [SM, streptomycin]",MIC,[1],0.78 µg/mL
same,MIC,[2],0.78 µg/mL
same,MIC,[3],> 100 µg/mL
same,MIC,[4],1.56 µg/mL
same,Log of Viable Counts/Lung,"M. tuberculosis Kurono; 20 mg/kg, 672 h","6.000 ± 0.553^a:**, b:*"
same,Log of Viable Counts/Lung,"M. tuberculosis Kurono; 40 mg/kg, 672 h","6.040 ± 0.361^a:**, b:*"
same,Log of Viable Counts/Lung,"M. tuberculosis Kurono; 80 mg/kg, 672 h","5.739 ± 0.309^a:**, b:**"
same,Log of Viable Counts/Lung,"M. tuberculosis Kurono; 160 mg/kg, 672 h","5.184 ± 0.461^a:**, b:**"
same,Dose that could produce a CFU reduction of at least 95%,M. tuberculosis Kurono,40 mg/kg
same,Dose groups that showed a significant decrease in pulmonary viable bacterial count when compared with the vehicle control group,M. tuberculosis Kurono,"20, 40, 80, and 160 mg/kg"
same,MIC,[6],0.78 µg/mL
same,MIC90,[10],2.94 µg/mL
same,MIC,[7],0.78 µg/mL
"Nc1ccc(S(=O)(=O)Nc2ccnn2-c2ccccc2)cc1 [Sulfaphenazole, sulfaphenazole]",Percent of Control,CYP2C8/9,25.5% of Control
CC1(COc2ccc(N3CCC(Oc4ccc(OC(F)(F)F)cc4)CC3)cc2)Cn2ccnc2O1 (stereo not shown) [desnitro-imidazooxazole],Activity of the main metabolite,M. tuberculosis,non-active
